Data as given in PubChem BioAssay AID1259407 (Chemical Carcinogenesis Research Information System (CCRIS), 2018).
Active and inactive are the calls of the source. No rule for the calls is given here.

Test system: CCRIS mutagenicity, Ames/micronucleus/aberration tests
Experiment: CCRIS mutagenicity studies
[1] = Test System: AMES SALMONELLA TYPHIMURIUM, Strain/Indicator: TA98, Metabolic Activation: NONE, Method: STANDARD PLATE
[2] = Test System: AMES SALMONELLA TYPHIMURIUM, Strain/Indicator: TA98, Metabolic Activation: RAT, LIVER, S-9, AROCLOR 1254, Method: STANDARD PLATE
[3] = Test System: AMES SALMONELLA TYPHIMURIUM, Strain/Indicator: TA100, Metabolic Activation: NONE, Method: STANDARD PLATE
[4] = Test System: AMES SALMONELLA TYPHIMURIUM, Strain/Indicator: TA100, Metabolic Activation: RAT, LIVER, S-9, AROCLOR 1254, Method: STANDARD PLATE
[5] = Test System: AMES SALMONELLA TYPHIMURIUM, Strain/Indicator: TA1535, Metabolic Activation: NONE, Method: STANDARD PLATE
[6] = Test System: AMES SALMONELLA TYPHIMURIUM, Strain/Indicator: TA1535, Metabolic Activation: RAT, LIVER, S-9, AROCLOR 1254, Method: STANDARD PLATE
[7] = Test System: AMES SALMONELLA TYPHIMURIUM, Strain/Indicator: TA1537, Metabolic Activation: NONE, Method: STANDARD PLATE
[8] = Test System: AMES SALMONELLA TYPHIMURIUM, Strain/Indicator: TA1537, Metabolic Activation: RAT, LIVER, S-9, AROCLOR 1254, Method: STANDARD PLATE
[9] = Test System: AMES SALMONELLA TYPHIMURIUM, Strain/Indicator: TA1538, Metabolic Activation: NONE, Method: STANDARD PLATE
[10] = Test System: AMES SALMONELLA TYPHIMURIUM, Strain/Indicator: TA1538, Metabolic Activation: RAT, LIVER, S-9, AROCLOR 1254, Method: STANDARD PLATE

## c1cc2c3c(c1)ccc1cccc(c13)C1OC21 (stereo not drawn)
Test System: CHINESE HAMSTER OVARY, Strain/Indicator: CHO (HGPRT)/6-THIOGUANINE, Metabolic Activation: NONE, Method: STANDARD PLATE
  mutagenic call: active; positive
Test System: CHINESE HAMSTER OVARY, Strain/Indicator: CHO (HGPRT)/6-THIOGUANINE, Metabolic Activation: RAT, LIVER, S-9, AROCLOR 1254, Method: STANDARD PLATE
  mutagenic call: inactive; negative
Test System: UDS RODENT HEPATOCYTES, Strain/Indicator: THY INCORP, Metabolic Activation: NONE, Method: AUTORADIOGRAPHY
  mutagenic call: active; positive

## Nc1ccccc1S(=O)(=O)O
Test System: AMES SALMONELLA TYPHIMURIUM, Strain/Indicator: TA97, Metabolic Activation: HAMSTER, LIVER, S-9, AROCLOR 1254 (10 OR 30%), Method: PREINCUBATION
  mutagenic call: inactive; negative
Test System: AMES SALMONELLA TYPHIMURIUM, Strain/Indicator: TA97, Metabolic Activation: NONE, Method: PREINCUBATION
  mutagenic call: inactive; negative
Test System: AMES SALMONELLA TYPHIMURIUM, Strain/Indicator: TA97, Metabolic Activation: RAT, LIVER, S-9, AROCLOR 1254 (10%), Method: PREINCUBATION
  mutagenic call: inactive; negative
Test System: AMES SALMONELLA TYPHIMURIUM, Strain/Indicator: TA97, Metabolic Activation: RAT, LIVER, S-9, AROCLOR 1254 (30%), Method: PREINCUBATION
  mutagenic call: inactive; negative
Test System: AMES SALMONELLA TYPHIMURIUM, Strain/Indicator: TA98, Metabolic Activation: HAMSTER, LIVER, S-9, AROCLOR 1254 (10 OR 30%), Method: PREINCUBATION
  mutagenic call: inactive; negative
Test System: AMES SALMONELLA TYPHIMURIUM, Strain/Indicator: TA98, Metabolic Activation: RAT, LIVER, S-9, AROCLOR 1254 (10 OR 30%), Method: PREINCUBATION
  mutagenic call: inactive; negative
Test System: AMES SALMONELLA TYPHIMURIUM, Strain/Indicator: TA100, Metabolic Activation: HAMSTER, LIVER, S-9, AROCLOR 1254 (10 OR 30%), Method: PREINCUBATION
  mutagenic call: inactive; negative
Test System: AMES SALMONELLA TYPHIMURIUM, Strain/Indicator: TA100, Metabolic Activation: NONE, Method: PREINCUBATION
  mutagenic call: inactive; negative
Test System: AMES SALMONELLA TYPHIMURIUM, Strain/Indicator: TA100, Metabolic Activation: RAT, LIVER, S-9, AROCLOR 1254 (10 OR 30%), Method: PREINCUBATION
  mutagenic call: inactive; negative
Test System: AMES SALMONELLA TYPHIMURIUM, Strain/Indicator: TA1535, Metabolic Activation: HAMSTER, LIVER, S-9, AROCLOR 1254 (10 OR 30%), Method: PREINCUBATION
  mutagenic call: inactive; negative
Test System: AMES SALMONELLA TYPHIMURIUM, Strain/Indicator: TA1535, Metabolic Activation: NONE, Method: PREINCUBATION
  mutagenic call: inactive; negative
Test System: AMES SALMONELLA TYPHIMURIUM, Strain/Indicator: TA1535, Metabolic Activation: RAT, LIVER, S-9, AROCLOR 1254 (10 OR 30%), Method: PREINCUBATION
  mutagenic call: inactive; negative

## CCCCC=O
Test System: AMES SALMONELLA TYPHIMURIUM, Strain/Indicator: TA98, Metabolic Activation: HAMSTER, LIVER, S-9, AROCLOR 1254, Method: STANDARD PLATE
  mutagenic call: inactive; negative
[1]
  mutagenic call: inactive; negative
[2]
  mutagenic call: inactive; negative
Test System: AMES SALMONELLA TYPHIMURIUM, Strain/Indicator: TA100, Metabolic Activation: HAMSTER, LIVER, S-9, AROCLOR 1254, Method: STANDARD PLATE
  mutagenic call: inactive; negative
[3]
  mutagenic call: inactive; negative
[4]
  mutagenic call: inactive; negative
Test System: AMES SALMONELLA TYPHIMURIUM, Strain/Indicator: TA1535, Metabolic Activation: HAMSTER, LIVER, S-9, AROCLOR 1254, Method: STANDARD PLATE
  mutagenic call: inactive; negative
[5]
  mutagenic call: inactive; negative
[6]
  mutagenic call: inactive; negative
Test System: AMES SALMONELLA TYPHIMURIUM, Strain/Indicator: TA1537, Metabolic Activation: HAMSTER, LIVER, S-9, AROCLOR 1254, Method: STANDARD PLATE
  mutagenic call: inactive; negative
[7]
  mutagenic call: inactive; negative
[8]
  mutagenic call: inactive; negative
Test System: AMES SALMONELLA TYPHIMURIUM, Strain/Indicator: TA1538, Metabolic Activation: HAMSTER, LIVER, S-9, AROCLOR 1254, Method: STANDARD PLATE
  mutagenic call: inactive; negative
[9]
  mutagenic call: inactive; negative
[10]
  mutagenic call: inactive; negative
Test System: CHINESE HAMSTER V-79, Strain/Indicator: V-79/6-THIOGUANINE (HGPRT), Metabolic Activation: NONE, Method: REPLATING
  mutagenic call: active; positive
Test System: CHINESE HAMSTER V-79, Strain/Indicator: V-79/OUABAIN (NA/K), Metabolic Activation: NONE, Method: REPLATING
  mutagenic call: active; positive
Test System: MOUSE LYMPHOMA, Strain/Indicator: L5178Y (TK+/TK-), Metabolic Activation: NONE, Method: SUSPENSION/PLATE
  mutagenic call: active; positive. reevaluation of results: positive
Test System: MOUSE LYMPHOMA, Strain/Indicator: L5178Y (TK+/TK-), Metabolic Activation: RAT, LIVER, S-9, AROCLOR 1254, Method: SUSPENSION/PLATE
  mutagenic call: inactive; negative. reevaluation of results: negative
Test System: UDS HUMAN HEPATOCYTES, Strain/Indicator: THY INCORP, Metabolic Activation: NONE, Method: AUTORADIOGRAPHY
  mutagenic call: inactive; negative
Test System: UDS RAT HEPATOCYTES, Strain/Indicator: THY INCORP, Metabolic Activation: NONE, Method: AUTORADIOGRAPHY
  mutagenic call: active; positive

## Nc1c(N=Nc2ccc([N+](=O)[O-])cc2)c(S(=O)(=O)O)cc2c1C(=O)/C(=N\Nc1ccc(-c3ccc(NN=C4C=CC(=O)C=C4)cc3)cc1)C(S(=O)(=O)O)=C2
Test System: AMES SALMONELLA TYPHIMURIUM, Strain/Indicator: TA98, Metabolic Activation: HAMSTER, LIVER, S-9, Method: PREINCUBATION (PRIVAL METHOD)
  mutagenic call: active; positive
[1]
  mutagenic call: inactive; negative
Test System: AMES SALMONELLA TYPHIMURIUM, Strain/Indicator: TA98, Metabolic Activation: RAT, LIVER, S-9, PHENOBARBITAL, Method: STANDARD PLATE
  mutagenic call: inactive; negative
[3]
  mutagenic call: inactive; negative
Test System: AMES SALMONELLA TYPHIMURIUM, Strain/Indicator: TA100, Metabolic Activation: RAT, LIVER, S-9, PHENOBARBITAL, Method: STANDARD PLATE
  mutagenic call: inactive; negative

## Cc1cccc2ccc3cc4ccccc4cc3c12
Test System: AMES SALMONELLA TYPHIMURIUM, Strain/Indicator: TA100, Metabolic Activation: RAT, INTACT HEPATOCYTES, AROCLOR 1254, Method: PREINCUBATION
  mutagenic call: active; positive
Test System: AMES SALMONELLA TYPHIMURIUM, Strain/Indicator: TA100, Metabolic Activation: RAT, NADPH-FORTIFIED HOMOGENIZED HEPATOCYTES, AROCLOR 1254, Method: PREINCUBATION
  mutagenic call: active; positive
Test System: AMES SALMONELLA TYPHIMURIUM, Strain/Indicator: TA100, Metabolic Activation: RAT, SONICATED HEPATOCYTES, AROCLOR 1254, Method: PREINCUBATION
  mutagenic call: active; positive

## O=C(O)c1ccccc1Nc1cc(Cl)ccc1C(=O)O
Test System: AMES SALMONELLA TYPHIMURIUM, Strain/Indicator: TA98, Metabolic Activation: NONE, Method: PREINCUBATION
  mutagenic call: inactive; negative
[1]
  mutagenic call: inactive; negative
Test System: AMES SALMONELLA TYPHIMURIUM, Strain/Indicator: TA98, Metabolic Activation: RAT, LIVER, S-9, AROCLOR 1254, Method: PREINCUBATION
  mutagenic call: inactive; negative
[2]
  mutagenic call: inactive; negative
[3]
  mutagenic call: inactive; negative
[4]
  mutagenic call: inactive; negative
[5]
  mutagenic call: inactive; negative
[6]
  mutagenic call: inactive; negative
[7]
  mutagenic call: inactive; negative
[8]
  mutagenic call: inactive; negative
[9]
  mutagenic call: inactive; negative
[10]
  mutagenic call: inactive; negative

## CC[C@H]1OC(=O)[C@H](C)[C@@H](O[C@H]2C[C@@](C)(OC)[C@@H](O)[C@H](C)O2)[C@H](C)[C@@H](O[C@@H]2O[C@H](C)C[C@H](N(C)C)[C@H]2O)[C@](C)(OC)C[C@@H](C)C(=O)[C@H](C)[C@@H](O)[C@]1(C)O
End Point: AMES SALMONELLA TYPHIMURIUM, Test System: TA98, Metabolic Activation: NONE, Method: STANDARD PLATE
  mutagenic call: inactive; negative
End Point: AMES SALMONELLA TYPHIMURIUM, Test System: TA100, Metabolic Activation: NONE, Method: STANDARD PLATE
  mutagenic call: inactive; negative
